# Patent publication US7311919B2, “Agents for treating osteoporosis and inhibiting osteoclast formation” (Simpson Biotech Co., Ltd., priority 2003, dated 2007)
# Test system: osteoclasts
# Assay: Osteoclast formation in co-culture of myelocytes and osteoblasts (TRAP staining)
# Format: cell-based
# Details: 2 U/ml
# Experimental: Myelocytes and osteoblasts were co-cultured in vitro and the numbers of osteoclasts formed were measured. Myelocytes will differentiate into osteoclasts expressing tartrate-resisted acidic phosphatase (TRAP) when vitamin D is present in the coculture. These osteoclasts could be identified by staining for TRAP. Therefore the development of osteoclasts could be assayed by co-culturing myelocytes with osteoblasts.
# Osteoblasts and, myelocytes were co-cultured in 24-well plate. PTH (100 ng/ml), 1α, 25 (OH)2VD3 (10^−8 M), water extraction of the mycelium of C. Sinensis 3 mg/ml, 300 μg/ml, 30 μg/ml, 3 μg/ml or Elcatonin 2 U/ml were added. Samples were numbered No. 1˜No. 6. Each sample was cultured in 4 wells. Culture was maintained for 6 days with medium changed every two days.
# After coculturing, TRAP-positive cells were stained to dark red color. The numbers of TRAP-positive osteoclasts that have more than 3 nucleuses were counted. The average numbers of osteoclasts from 4 samples were the number of osteoclasts.
# The numbers of osteoclasts in the 1α, 25 (OH)2D3 sample was considered 100%. The percentage of osteoclasts formed of experimental group was calculated using formula 1. Student's t-test was used to examine the significance.
# The formation of osteoclasts (%) osteoclast cell numbers/osteoclast cell numbers in medium with 1α,25(OH)2D3×100 (formula 1)
substance,measurement,setting,value
Elcatonin,Formation of osteoclasts (%),"1α,25(OH)2D3 sample = 100%",13.8%
same,Average Osteoclast cell numbers (n = 4),6 days co-culture,113.0
